According to patent US10981911B2, “Imidazopyrrolopyridine as inhibitors of the JAK family of kinases” (Janssen Pharmaceutica NV, priority 2016, dated 2021):
pIC50: −log10 of the molar value.

Tests used:
Format in all cases: biochemical
[1] = molecular target: JAK1-JH1JH2 (Homo sapiens (Human), UniProt P23458); assay: Enzymatic inhibition assay (RapidFire HTMS), JAK1; conditions: 12.5 μM ATP, 200 μM substrate; read-out: JAK1-JH2JH1 IC50
Method in brief: (§1)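 Quenched with 0.5% TFA plus internal-standard peptide; phosphorylated product quantified by RapidFire C4 SPE–ESI-MS, 11-point 1:3 or 1:4 dilutions in duplicate.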

[2] = molecular target: JAK3-JH1JH2 (Homo sapiens (Human), UniProt P52333); assay: Enzymatic inhibition assay (RapidFire HTMS), JAK3; conditions: 150 μM ATP, 40 μM substrate
Method in brief: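 Compounds tested in duplicate over 11-point 1:3 or 1:4 dilution series; no-enzyme wells as negative control. After 45 min at 25 °C, TFA quench with internal standard, and phosphorylated product quantified by RapidFire–QTrap mass spectrometry relative to the uninhibited reaction.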

[3] = molecular target: Tyk2-JH1JH2 (Homo sapiens (Human), UniProt P29597, C1142A/C936A); assay: Enzymatic inhibition assay (RapidFire HTMS), Tyk2; conditions: 50 μM ATP, 200 μM substrate
Method in brief: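 Compounds were tested in duplicate as 11-point 1:3 or 1:4 DMSO dilutions (≤0.25% DMSO final) in 20 μL reactions at 25 °C for 90 min, with Tyk2 pre-incubated 30 min with 2 mM ATP. Reactions were quenched with TFA plus internal standard peptide, and phosphorylated product was quantified by RapidFire C4 SPE–ESI MS.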

[4] = molecular target: JAK2-JH1JH2 (Homo sapiens (Human), UniProt O60674); assay: Enzymatic inhibition assay (RapidFire HTMS), JAK2; conditions: 30 μM ATP, 40 μM substrate
Method in brief: as §1

Sequence of JAK1-JH1JH2 (P23458 574-1154): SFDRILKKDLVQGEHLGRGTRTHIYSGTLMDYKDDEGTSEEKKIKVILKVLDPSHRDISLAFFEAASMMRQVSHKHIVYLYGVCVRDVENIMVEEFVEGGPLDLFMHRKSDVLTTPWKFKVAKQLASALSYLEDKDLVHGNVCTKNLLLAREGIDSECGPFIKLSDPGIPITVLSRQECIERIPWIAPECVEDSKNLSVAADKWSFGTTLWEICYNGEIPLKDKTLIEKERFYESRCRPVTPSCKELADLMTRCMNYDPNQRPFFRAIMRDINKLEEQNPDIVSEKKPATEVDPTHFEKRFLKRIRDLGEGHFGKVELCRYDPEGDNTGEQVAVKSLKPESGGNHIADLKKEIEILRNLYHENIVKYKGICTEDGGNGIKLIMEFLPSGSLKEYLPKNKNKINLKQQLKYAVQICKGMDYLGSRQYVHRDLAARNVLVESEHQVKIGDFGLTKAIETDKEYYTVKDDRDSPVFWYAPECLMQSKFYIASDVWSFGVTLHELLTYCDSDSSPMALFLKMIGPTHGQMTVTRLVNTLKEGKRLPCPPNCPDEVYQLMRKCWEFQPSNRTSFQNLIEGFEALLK
Sequence of JAK3-JH1JH2 (P52333 512-1124): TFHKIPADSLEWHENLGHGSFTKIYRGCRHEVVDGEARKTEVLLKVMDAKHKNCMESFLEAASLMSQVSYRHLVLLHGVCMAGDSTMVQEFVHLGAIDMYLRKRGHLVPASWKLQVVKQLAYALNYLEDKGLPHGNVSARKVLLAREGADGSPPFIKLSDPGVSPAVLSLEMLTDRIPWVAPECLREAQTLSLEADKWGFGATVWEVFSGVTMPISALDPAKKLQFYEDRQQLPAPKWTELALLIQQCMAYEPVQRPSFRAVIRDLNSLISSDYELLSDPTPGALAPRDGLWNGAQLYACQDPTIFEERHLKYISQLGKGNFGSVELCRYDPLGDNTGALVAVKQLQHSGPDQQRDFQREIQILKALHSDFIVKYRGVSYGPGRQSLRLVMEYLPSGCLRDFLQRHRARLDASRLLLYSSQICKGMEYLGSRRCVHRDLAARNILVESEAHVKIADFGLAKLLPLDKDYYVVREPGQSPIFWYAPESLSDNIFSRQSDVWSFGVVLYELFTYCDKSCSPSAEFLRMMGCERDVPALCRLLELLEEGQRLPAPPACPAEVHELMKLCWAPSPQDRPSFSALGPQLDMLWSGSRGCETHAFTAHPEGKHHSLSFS
Sequence of JAK2-JH1JH2 (O60674 532-1132): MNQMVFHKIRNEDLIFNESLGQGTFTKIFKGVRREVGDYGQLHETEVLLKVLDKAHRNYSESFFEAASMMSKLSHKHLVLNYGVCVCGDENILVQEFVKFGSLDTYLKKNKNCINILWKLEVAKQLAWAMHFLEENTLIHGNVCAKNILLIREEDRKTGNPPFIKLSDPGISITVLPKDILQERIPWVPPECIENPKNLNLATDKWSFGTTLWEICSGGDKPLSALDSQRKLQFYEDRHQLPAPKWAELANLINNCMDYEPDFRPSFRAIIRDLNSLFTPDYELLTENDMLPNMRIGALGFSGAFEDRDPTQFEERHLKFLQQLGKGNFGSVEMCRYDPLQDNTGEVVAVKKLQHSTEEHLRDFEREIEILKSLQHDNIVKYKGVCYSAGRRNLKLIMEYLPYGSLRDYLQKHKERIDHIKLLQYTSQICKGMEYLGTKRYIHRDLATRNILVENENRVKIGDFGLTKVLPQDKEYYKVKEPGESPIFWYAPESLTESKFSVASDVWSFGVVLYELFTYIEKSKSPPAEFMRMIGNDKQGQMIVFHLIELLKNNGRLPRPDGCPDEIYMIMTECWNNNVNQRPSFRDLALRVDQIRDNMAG
Sequence of Tyk2-JH1JH2 (P29597 580-1182 C936A/C1142A): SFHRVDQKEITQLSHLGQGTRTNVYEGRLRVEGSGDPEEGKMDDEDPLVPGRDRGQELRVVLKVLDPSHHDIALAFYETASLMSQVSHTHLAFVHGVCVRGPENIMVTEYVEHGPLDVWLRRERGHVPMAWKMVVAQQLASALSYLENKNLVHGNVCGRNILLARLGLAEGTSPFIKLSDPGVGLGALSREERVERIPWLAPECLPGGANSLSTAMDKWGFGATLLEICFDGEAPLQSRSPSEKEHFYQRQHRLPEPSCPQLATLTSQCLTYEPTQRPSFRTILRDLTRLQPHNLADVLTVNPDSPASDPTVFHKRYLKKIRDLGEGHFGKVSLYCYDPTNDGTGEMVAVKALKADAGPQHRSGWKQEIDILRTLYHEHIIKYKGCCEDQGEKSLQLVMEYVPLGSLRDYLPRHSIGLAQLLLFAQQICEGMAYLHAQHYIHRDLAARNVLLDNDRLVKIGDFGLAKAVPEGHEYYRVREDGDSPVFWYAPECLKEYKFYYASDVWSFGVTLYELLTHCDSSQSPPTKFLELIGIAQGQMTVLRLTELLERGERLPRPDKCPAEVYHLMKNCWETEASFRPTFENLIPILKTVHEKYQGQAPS

SMILES	pIC50 [1]	pIC50 [2]	pIC50 [3]	pIC50 [4]
N#CC[C@H]1CC[C@H](n2c(-c3ccc(C(=O)c4ccccc4)cc3)nc3cnc4[nH]ccc4c32)CC1 [Ex. 92, 2-((1r,4r)-4-(2-(4-Benzoylphenyl)imidazo[4,5-d]pyrrolo[2,3-b]pyridin-1(6H)-yl)cyclohexyl)acetonitrile]	9.40	6.06	7.47	7.93
N#CC[C@H]1CC[C@H](n2c(CNS(=O)(=O)c3ccccc3)nc3cnc4[nH]ccc4c32)CC1 [Ex. 77, N-((1-((1r,4r)-4-(Cyanomethyl)cyclohexyl)-1,6-dihydroimidazo[4,5-d]pyrrolo[2,3-b]pyridin-2-yl)methyl)benzenesulfonamide]	9.40	5.72	7.65	7.40
N#CC[C@H]1CC[C@H](n2c(CC(=O)N3CCC[C@H]3CO)nc3cnc4[nH]ccc4c32)CC1 [Ex. 195, 2-((1S,4r)-4-(2-(2-((S)-2-(hydroxymethyl)pyrrolidin-1-yl)-2-oxoethyl)imidazo[4,5-d]pyrrolo[2,3-b]pyridin-1(6H)-yl)cyclohexyl)acetonitrile]	8.48	6.53	7.96	7.47
N#CC[C@H]1CC[C@H](n2c(-c3cncs3)nc3cnc4[nH]ccc4c32)CC1 [Ex. 119, 2-((1r,4r)-4-(2-(Thiazol-5-yl)imidazo[4,5-d]pyrrolo[2,3-b]pyridin-1(6H)-yl)cyclohexyl)acetonitrile]	9.15	6.93	7.80	8.06
N#CC[C@H]1CC[C@H](n2c(CC(=O)NC34CCC(CO)(CC3)C4)nc3cnc4[nH]ccc4c32)CC1 [Ex. 131, 2-(1-((1r,4r)-4-(Cyanomethyl)cyclohexyl)-1,6-dihydroimidazo[4,5-d]pyrrolo[2,3-b]pyridin-2-yl)-N-(4-(hydroxymethyl)bicyclo[2.2.1]heptan-1-yl)acetamide]	9.10	7.00	7.98	8.25
CSc1nccc(-c2nc3cnc4[nH]ccc4c3n2[C@H]2CC[C@H](CC#N)CC2)n1 [Ex. 98, 2-((1r,4r)-4-(2-(2-(Methylthio)pyrimidin-4-yl)imidazo[4,5-d]pyrrolo[2,3-b]pyridin-1(6H)-yl)cyclohexyl)acetonitrile]	9.30	6.93	7.89	8.03
COCCCNC(=O)c1nc2cnc3[nH]ccc3c2n1[C@H]1CC[C@H](CC#N)CC1 [Ex. 173, 1-((1r,4r)-4-(Cyanomethyl)cyclohexyl)-N-(3-methoxypropyl)-1,6-dihydroimidazo[4,5-d]pyrrolo[2,3-b]pyridine-2-carboxamide]	8.89	6.14	7.25	7.55
N#CC[C@H]1CC[C@H](n2c(CC(=O)NCC(O)c3ccccc3)nc3cnc4[nH]ccc4c32)CC1 (stereo partly shown) [Ex. 102, 2-(1-((1r,4r)-4-(Cyanomethyl)cyclohexyl)-1,6-dihydroimidazo[4,5-d]pyrrolo[2,3-b]pyridin-2-yl)-N-(2-hydroxy-2-phenylethyl)acetamide]	9.30	6.70	8.13	7.94
N#CC[C@H]1CC[C@H](n2c(CN/C(=N/O)C3CCCCC3)nc3cnc4[nH]ccc4c32)CC1 [Ex. 204, N-((1-((1r,4r)-4-(Cyanomethyl)cyclohexyl)-1,6-dihydroimidazo[4,5-d]pyrrolo[2,3-b]pyridin-2-yl)methyl)-N′-hydroxycyclohexanecarboximidamide]	8.17	6.37	7.97	7.88
CC(C)(O)C1CCN(C(=O)Cc2nc3cnc4[nH]ccc4c3n2[C@H]2CC[C@H](CC#N)CC2)CC1 [Ex. 93, 2-((1r,4r)-4-(2-(2-(4-(2-Hydroxypropan-2-yl)piperidin-1-yl)-2-oxoethyl)imidazo[4,5-d]pyrrolo[2,3-b]pyridin-1(6H)-yl)cyclohexyl)acetonitrile]	9.30	6.74	8.35	7.92
N#CC[C@H]1CC[C@H](n2c(Cn3c(-c4ccccc4)noc3=O)nc3cnc4[nH]ccc4c32)CC1 [Ex. 203, 2-((1r,4r)-4-(2-((5-Oxo-3-phenyl-1,2,4-oxadiazol-4(5H)-yl)methyl)imidazo[4,5-d]pyrrolo[2,3-b]pyridin-1(6H)-yl)cyclohexyl)acetonitrile]	8.07	5.33	7.38	6.82
C#Cc1ccc(C(=O)c2ccc(-c3nc4cnc5[nH]ccc5c4n3[C@H]3CC[C@H](CC#N)CC3)cc2)cc1 [Ex. 169, 2-((1r,4r)-4-(2-(4-(4-Ethynylbenzoyl)phenyl)imidazo[4,5-d]pyrrolo[2,3-b]pyridin-1(6H)-yl)cyclohexyl)acetonitrile]	8.70	5.25	6.98	7.51
N#CC[C@H]1CC[C@H](n2c(CC(N)=O)nc3cnc4[nH]ccc4c32)CC1 [Ex. 201, 2-(1-((1r,4r)-4-(Cyanomethyl)cyclohexyl)-1,6-dihydroimidazo[4,5-d]pyrrolo[2,3-b]pyridin-2-yl)acetamide]	> 8.40	7.32	8.96	8.72
N#CC[C@H]1CC[C@H](n2c(CC(=O)NCc3ccc(F)cc3)nc3cnc4[nH]ccc4c32)CC1 [Ex. 45, 2-(1-((1r,4r)-4-(Cyanomethyl)cyclohexyl)-1,6-dihydroimidazo[4,5-d]pyrrolo[2,3-b]pyridin-2-yl)-N-(4-fluorobenzyl)acetamide]	9.70	6.74	7.91	8.21
N#CC[C@H]1CC[C@H](n2c(CC(=O)N3CCC(CO)CC3)nc3cnc4[nH]ccc4c32)CC1 [Ex. 73, 2-((1r,4r)-4-(2-(2-(4-(Hydroxymethyl)piperidin-1-yl)-2-oxoethyl)imidazo[4,5-d]pyrrolo[2,3-b]pyridin-1(6H)-yl)cyclohexyl)acetonitrile]	9.40	6.70	8.20	7.70
N#CC[C@H]1CC[C@H](n2c(CC(=O)NCC(F)(F)F)nc3cnc4[nH]ccc4c32)CC1 [Ex. 57, 2-(1-((1r,4r)-4-(Cyanomethyl)cyclohexyl)-1,6-dihydroimidazo[4,5-d]pyrrolo[2,3-b]pyridin-2-yl)-N-(2,2,2-trifluoroethyl)acetamide]	9.70	7.16	8.47	8.25
Cc1nc(C)c(-c2nc3cnc4[nH]ccc4c3n2[C@H]2CC[C@H](CC#N)CC2)s1 [Ex. 184, 2-((1r,4r)-4-(2-(2,4-dimethylthiazol-5-yl)imidazo[4,5-d]pyrrolo[2,3-b]pyridin-1(6H)-yl)cyclohexyl)acetonitrile]	7.59	5.91	6.50	6.64
CNC(=O)c1nc2cnc3[nH]ccc3c2n1[C@H]1CC[C@H](CC#N)CC1 [Ex. 133, 1-((1r,4r)-4-(Cyanomethyl)cyclohexyl)-N-methyl-1,6-dihydroimidazo[4,5-d]pyrrolo[2,3-b]pyridine-2-carboxamide]	9.10	6.81	7.70	8.03
N#CC[C@H]1CC[C@H](n2c(CNC(=N)c3ccccc3)nc3cnc4[nH]ccc4c32)CC1 [Ex. 30, N-((1-((1r,4r)-4-(Cyanomethyl)cyclohexyl)-1,6-dihydroimidazo[4,5-d]pyrrolo[2,3-b]pyridin-2-yl)methyl)benzimidamide]	9.70	6.00	8.80	8.18
